Results reported in US6743812B1, “Pharmaceutical compositions and methods for use” (Targacept, Inc., priority 2000, dated 2004).

What was measured:
CNS nicotinic receptors = CNS nicotinic receptors (Rattus norvegicus, UniProt P09483+P12390); test: Determination of binding to relevant receptor sites; details: binding to certain CNS nicotinic receptors; read-out: Ki (inhibition constant, calculated from IC50 by the method of Cheng et al.)
Method: Determination of Binding to Relevant Receptor Sites
Binding of the compounds to relevant receptor sites was determined in accordance with the techniques described in U.S. Pat. No. 5,597,919 to Dull et al. Inhibition constants (Ki values), reported in nM, were calculated from the IC50 values using the method of Cheng et al., Biochem, Pharnacol. 22:3099 (1973).

[1] = Water absorption (hygroscopicity) of salts; type: physicochemical
Water solubility of salt = type: physicochemical
[2] = Physical and chemical stability of salt; type: physicochemical

Chain of CNS nicotinic receptors (P09483 31-630): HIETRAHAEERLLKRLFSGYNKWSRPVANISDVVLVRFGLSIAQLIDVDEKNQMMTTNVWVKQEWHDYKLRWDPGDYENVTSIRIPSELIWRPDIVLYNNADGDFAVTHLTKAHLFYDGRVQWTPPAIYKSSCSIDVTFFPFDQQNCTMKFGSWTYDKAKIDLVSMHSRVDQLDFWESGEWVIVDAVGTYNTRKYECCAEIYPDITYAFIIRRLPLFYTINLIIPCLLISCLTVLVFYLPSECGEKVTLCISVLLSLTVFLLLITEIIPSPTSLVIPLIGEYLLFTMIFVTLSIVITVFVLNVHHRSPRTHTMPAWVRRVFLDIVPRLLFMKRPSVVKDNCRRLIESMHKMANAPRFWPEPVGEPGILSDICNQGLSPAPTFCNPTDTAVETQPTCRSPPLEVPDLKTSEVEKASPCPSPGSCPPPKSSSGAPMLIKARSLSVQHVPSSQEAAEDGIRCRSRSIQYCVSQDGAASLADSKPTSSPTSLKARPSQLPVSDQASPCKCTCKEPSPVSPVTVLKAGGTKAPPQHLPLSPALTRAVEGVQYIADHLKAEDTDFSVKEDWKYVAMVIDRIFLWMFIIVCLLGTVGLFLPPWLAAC
Chain of CNS nicotinic receptors (P12390 25-500): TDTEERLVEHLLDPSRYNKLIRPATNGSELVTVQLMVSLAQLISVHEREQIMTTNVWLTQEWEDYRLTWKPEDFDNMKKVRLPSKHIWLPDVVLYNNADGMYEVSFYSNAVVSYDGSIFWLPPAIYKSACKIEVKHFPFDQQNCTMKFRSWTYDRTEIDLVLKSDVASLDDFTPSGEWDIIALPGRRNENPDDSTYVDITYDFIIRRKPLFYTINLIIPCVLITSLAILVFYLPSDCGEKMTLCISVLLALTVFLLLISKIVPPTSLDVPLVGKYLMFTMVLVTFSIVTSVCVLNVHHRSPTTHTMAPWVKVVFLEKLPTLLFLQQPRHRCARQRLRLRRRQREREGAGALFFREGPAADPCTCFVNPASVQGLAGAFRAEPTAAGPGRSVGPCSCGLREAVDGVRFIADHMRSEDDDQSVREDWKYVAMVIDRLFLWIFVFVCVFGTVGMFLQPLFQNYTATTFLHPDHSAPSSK

Which Ki (CNS nicotinic receptors) does the source give for CN[C@@H](C)C/C=C/c1cncc(OC(C)C)c1 [Sample No. 1, (2S)-(4E)-N-methyl-5-[3-(5-isopropoxypyridin)yl]-4-penten-2-amine hemi-(di-p-toluoyl-L-tartrate)] here?
The Ki was 6 nM.

What does the source list for CN[C@@H](C)C/C=C/c1cncc(OC(C)C)c1 [Sample No. 2, (2S)-(4E)-N-methyl-5-[3-(5-isopropoxypyridin)yl]-4-penten-2-amine hemi-(di-p-toluoyl-D-tartrate)]?
Ki (CNS nicotinic receptors): 5 nM; amount of water absorbed ([1]; room temperature and 90% relative humidity): 3.2%; hygroscopicity compared with other salts ([1]; single salt: versus corresponding salt derived from galactaric acid (mucic acid)): less hygroscopic; water solubility (Water solubility of salt): water soluble; stability [2]: physically and chemically stable

For CN[C@@H](C)C/C=C/c1cncc(OC(C)C)c1.CN[C@@H](C)C/C=C/c1cncc(OC(C)C)c1.O=C(O)[C@@H](O)[C@H](O)[C@H](O)[C@@H](O)C(=O)O [hemigalactarate of (2S)-(4E)-N-methyl-5-[3-(5-isopropoxypyridin)yl)]-4-penten-2-amine, reference compound], which “amount of water absorbed” value ([1]; 40° C. and 70% relative humidity) is on record?
Its value is 11.8%.
